Assay results as given in US20200115357A1, “LIVER X RECEPTORS (LXR) MODULATORS” (Phenex-FXR GmbH, priority 2017, published 2020).
Like-named read-outs stand apart in the source and are kept apart here.

Experiments:
[1] = Pharmacokinetics in mice, blood and liver exposure via LC-MS; type: in vivo
Description: The pharmacokinetics of different sulfonamides was assessed in mice after single dosing and oral and intraperitoneal administrations. Blood and liver exposure was measured via LC-MS.
The study design was as follows:
Animals: C57BL/6J (Janvier) males
Diet: standard rodent chow
Vehicle for i.p. injection: 0.5% HPMC (w:v) in water, injection volume: <5 mL/kg
Animal handling: animals were withdrawn from food at least 12 h before administration
Design: single dose oral and bid ip administration, n=3 animals per group
Sacrifice: at t=4 h after administration
Bioanalytics: LC-MS of liver and blood samples

[2] = rat liver microsomes; cited from earlier work
[3] = human liver microsomes; cited from earlier work
[4] = test system: LXR; details: acid formed by ester cleavage of SR9238; cited from earlier work
[5] = po, Dose (mg) 20, C57BL/6J mice, 4 h after administration

SMILES | oral bioavailability (in words) ([1]; mice, oral administration) | blood exposure, 4 h [1, 5] | liver exposure, 4 h [1, 5] | clearance (Clint) [2] | clearance (Clint) [3] | activity on LXR (in words) [4]
Cc1cc(C)c(S(=O)(=O)N(Cc2ccc(-c3cccc(S(C)(=O)=O)c3)cc2)Cc2ccc(C(F)(F)F)o2)c(C)c1 [GSK2033, reference compound] | not orally bioavailable | (14.4 ng/mL) | (9.6 ng/mL) | > 1.0 mL/min/mg prot | > 1.0 mL/min/mg prot | –
Cc1cc(C)c(S(=O)(=O)N(Cc2ccc(-c3cccc(S(C)(=O)=O)c3)cc2)Cc2ccc(C(=O)O)o2)c(C)c1 [SR10389] | – | – | – | – | – | inactive
